According to patent publication US20260158005A1, “A SALT-BASED ANTIFUNGAL POWDER PLATFORM FORMULATION FOR AEROSOLIZATION” (AGENCY FOR SCIENCE, TECHNOLOGY AND RESEARCH, priority 2021, published 2026):
Converted amounts (≈) assume the structure as drawn.

Assays:
[1] = In vitro aerosol performance: Fine Particle Fraction (FPF) of the powder; assay type: physicochemical; settings: Table 5; optimized platform formulation (sodium sulfate 5% w/w, L-leucine 30% w/w, spray dry) vs unformulated
Description: The responses were Fine Particle Fraction (FPF) and Anti-fungal Activity (MIC—Minimum Inhibitory Concentration) (Table 2), while the tested pathogen was Candida albicans.
The FPF was influenced mainly by the type of salt excipient (i.e., parameter A; Rank 1), with sodium sulfate as one of the preferred options. The optimum results for all the parameters are: A6, B1, C1, D3.
Letters A, B, C and D represent the experimental parameters and corresponding levels.

[2] = test system: Candida albicans; experiment: Antifungal activity (MIC, Minimum Inhibitory Concentration); assay type: cell-based; settings: for MIC: Candida albicans, Table 5, optimized platform formulation vs unformulated
Description: The responses were Fine Particle Fraction (FPF) and Anti-fungal Activity (MIC—Minimum Inhibitory Concentration) (Table 2), while the tested pathogen was Candida albicans. The antifungal activity was influenced mainly by the type of salt excipient as well (i.e. parameter A; Rank 1), with sodium sulfate as one of the preferred options. The optimum results for all the parameters are: A6, B1, C3, D3.

OC(Cn1cncn1)(Cn1cncn1)c1ccc(F)cc1F [A, Fluconazole]
FPF (%) [1]: 2.6 ± 0.1% | MIC [2]: 0.25 µg/mL (≈ 0.816 µM) | improvement in antifungal activity ([2]; formulated using the platform technology vs unformulated): approximately 4 times

CCC(C)n1ncn(-c2ccc(N3CCN(c4ccc(OCC5COC(Cn6cncn6)(c6ccc(Cl)cc6Cl)O5)cc4)CC3)cc2)c1=O (stereo not drawn) [B, Itraconazole]
MIC [2]: < 0.03 µg/mL

C[C@@H](c1ncncc1F)[C@](O)(Cn1cncn1)c1ccc(F)cc1F [C, Voriconazole]
FPF (%) [1]: 3.5 ± 0.3% | MIC [2]: < 0.03 µg/mL
